Assay results from publication PMC12610503, “The Molecular Mechanism of PDE1 Regulation” (Cells, 2025).
Entries after “also recorded” stand apart in the source; their conditions may differ. Ends that are not written are not given here.

Assays:
[1] = system: PDE1/4 chimera (PDE1B regulatory domain fused to the PDE4D catalytic domain); assay: PDE4 inhibitor inhibition of the PDE1/4 chimera (SPA); format: biochemical, human; conditions: [3H]-cAMP; for Inhibition of PDE1/4 chimera activity (in words) / Rolipram potency on PDE1/4 chimera relative to PDE4D catalytic domain (in words) / Rolipram affinity/potency boost on calcium/calmodulin-activated PDE1/4 chimera (in words): pH 7.2, 1 h, room temperature; for Rolipram potency on PDE1/4 chimera relative to PDE4D catalytic domain (in words): IC50, 3–5 independent experiments, without calcium/calmodulin activation; for Rolipram affinity/potency boost on calcium/calmodulin-activated PDE1/4 chimera (in words): chimera activated by calcium/calmodulin
Excerpt: (§1) Human PDE1B1 (Refseq: NM_000924.4) and its N-terminal deletion constructs were cloned into BamH1 and Xho1 sites of pcDNA3.1(+) using PCR. The stated boundary and amino acid positions for mutants and deletion constructs are based on the PDE1B1 isoform (Refseq: NP_000915). For all N-terminal constructs, a start codon was introduced upstream of the indicated boundary, resulting in a methionine preceding the amino acid specified by the N-terminal boundaries. Point mutations and internal deletions were generated using the QuickChange^TM site-directed mutagenesis method, as previously described. The PDE1B-PDE4D chimera was generated by inserting the human PDE4D catalytic domain with a PCR-introduced N-terminal BspE1 site into a pcDNA3.1-PDE1B (82-end) construct using an internal BspE1 site at the junction of the regulatory and catalytic domain and an Xho1 site downstream of the stop codon. All constructs were validated through sequencing. Maps and sequences are available upon request. Alignments were generated using Geneious Prime (v 2024.0.7). Amino acids are colored according to the RasMol color scheme, and similarities are indicated according to the BLOSUM substitution matrix.
Plasmids were transiently transfected into HEK293 cells using Lipofectamine 2000 (Thermo Fisher, Waltham, MA, USA) according to the manufacturer’s instructions. For each well of a 6-well plate, 5 µg plasmid and 10 µL Lipofectamine 2000 were used.
Next, 48 h after transfection, cells were washed once with ice-cold PBS, scraped off into 2 mL PBS, and pelleted via centrifugation at 700× g for 5 min at 4 °C. The resulting cell pellet was frozen. Later, the pellet was thawed and resuspended in 0.5 mL of lysis buffer 50 mM Tris-HCL (pH 8.0) (Sigma-Aldrich, T3253, St. Louis, MO, USA), 1 mM MgCl2, and Complete ULTRA protease inhibitor cocktail (Roche, 05892970001, Basel, Switzerland). The lysate was then centrifuged at 20.000× g for 10 min at 4 °C to remove nuclei and membranes. Then, 0.05% Tween20 (Sigma-Aldrich, P2287) (final concentration) was added to the supernatant containing the cytosolic PDE1 before it was aliquoted and snap frozen.
PDE activity was measured using a scintillation proximity assay (SPA)-based method, similar to that previously described. Briefly, assays were conducted in 96-well plates using a buffer containing 40 mM Hepes (pH 7.2), 140 mM KCl, and 1.5 mM MgCl2. In each well, 0.005–0.05 µL PDE lysate was mixed with or without final concentrations of 50 µM CaCl2 and 50 nM calmodulin (Sigma-Aldrich, P1431) in a volume of 55 µL, and allowed to stand for 5 min at room temperature. Lysate amounts were adjusted to ensure that less than 30% of the tritiated substrate was hydrolyzed. Next, 10 µL tritiated cyclic nucleotide substrate ([3H]-cGMP for PDE1 and [3H]-cAMP for PDE4 and the PDE1/4 chimera) was added, and the reaction was allowed to proceed for 1 h at room temperature before 15 µL of 8 mg/mL phosphodiesterase SPA beads (Perkin Elmer, RPNQ0150, Shelton, CT, USA) was added. After another hour at room temperature to allow binding of the reaction products to the beads, the plates were counted for 2 min using a liquid scintillation counter (Wallac Trilux, Turku, Finland). […] To avoid overestimating inhibition, PEP1-sol was also tested by adding it after reaction termination (i.e., after SPA bead addition) in concentration–response experiments, and pre-addition inhibition minus post-addition (apparent) inhibition at each concentration was used for IC50 calculations.
To test whether the regulatory domains are functionally transferable, we generated and expressed a PDE1/4 chimera with the regulatory domain from PDE1B fused to the catalytic domain from PDE4D (Figure S1).

[2] = system: PDE4 UCR2-containing isoforms; conditions: cited from earlier work
Excerpt: For PDE4, the longer isoforms that contain the N-terminal upstream conserved regions (UCR1 and UCR2) are activated by phosphorylation via the cAMP-activated protein kinase A (PKA), providing feedback regulation. […] To test whether the regulatory domains are functionally transferable, we generated and expressed a PDE1/4 chimera with the regulatory domain from PDE1B fused to the catalytic domain from PDE4D (Figure S1). […] Rolipram is a selective PDE4 inhibitor with higher potency towards PD ...

[3] = Solubility of inhibitory domain peptides; format: physicochemical
[4] = molecular target: T1, PDE1B catalytic domain (PDE1B-cata) (Homo sapiens, UniProt Q01064); assay: Inhibition of PDE1B-cata enzyme activity by inhibitory domain peptides added in trans (SPA); format: biochemical; conditions: [3H]-cGMP, pH 7.2, 1 h, room temperature, post-addition (apparent) inhibition subtracted, average ± SEM from 3 independent experiments
T1 construct: compared to the PDE1B catalytic domain (PDE1B-cata; 146–536); added initiator methionine (single Met before residue 146); made in house; host or cells: HEK293 cells, transiently transfected with pcDNA3.1(+) construct; cleared cytosolic lysate used, not purified
Excerpt: as §1, with “Alignments were generated using Geneious Prime (v 2024.0.7). Amino acids are colored according to the RasMol color scheme, and similarities are indicated according to the BLOSUM substitution matrix.” left out
(§2) PDE activity was measured using a scintillation proximity assay (SPA)-based method, similar to that previously described. […] After another hour at room temperature to allow binding of the reaction products to the beads, the plates were counted for 2 min using a liquid scintillation counter (Wallac Trilux, Turku, Finland). […] Since absorbance was low, this had only a minor impact on IC50 estimates. […]

PDE1B_82–501 = assay: Calcium/calmodulin activation of PDE1B_82–501 (SPA); format: biochemical, human; conditions: 50 nM calmodulin and 50 µM CaCl2; deletion of 35 amino acids from C-terminal
Excerpt: as §1, with “Alignments were generated using Geneious Prime (v 2024.0.7). Amino acids are colored according to the RasMol color scheme, and similarities are indicated according to the BLOSUM substitution matrix.” left out
as §2

T1 sequence (Q01064 146-536): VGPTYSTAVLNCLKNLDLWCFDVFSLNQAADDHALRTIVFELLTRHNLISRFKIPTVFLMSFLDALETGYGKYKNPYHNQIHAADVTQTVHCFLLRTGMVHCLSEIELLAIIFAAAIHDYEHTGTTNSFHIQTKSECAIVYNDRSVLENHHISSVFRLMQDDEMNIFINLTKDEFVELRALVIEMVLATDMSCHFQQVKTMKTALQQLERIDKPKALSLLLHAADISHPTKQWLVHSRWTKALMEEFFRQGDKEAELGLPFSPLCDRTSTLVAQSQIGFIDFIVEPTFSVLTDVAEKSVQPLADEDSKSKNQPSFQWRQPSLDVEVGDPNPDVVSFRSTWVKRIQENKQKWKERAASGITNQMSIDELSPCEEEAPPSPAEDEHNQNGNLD

With `O=C(Nc1c(Cl)cncc1Cl)c1ccc(OC(F)F)c(OCC2CC2)c1` [roflumilast] the “Effect of calcium/calmodulin activation on roflumilast IC50 towards chimera (in words)” value ([1]; 3-4 independent experiments) was “unaffected by”, the “Roflumilast IC50 towards chimera compared with PDE4Dcata (in words)” value ([1]; 3-4 independent experiments, one-way ANOVA with Sidak's) was “not significantly different from PDE4D catalytic domain” and the “Inhibition of PDE1/4 chimera activity (in words)” value [1] was “could be inhibited; also recorded: inhibits the PDE1/4 chimera”.
In the case of `COc1ccc(C2CNC(=O)C2)cc1OC1CCCC1` (stereo not shown) [rolipram], the “Rolipram affinity for UCR2-containing isoforms compared to the catalytic domain alone (in words)” value ([2]; compared to the catalytic domain alone) is listed as “higher affinity”, the “Rolipram potency towards PDE4 isoforms containing regulatory domains (in words)” value ([2]; selective PDE4 inhibitor) is listed as “higher potency towards PDE4 isoforms containing regulatory domains” and the “Inhibition of PDE1/4 chimera activity (in words)” value [1] is listed as “could be inhibited”. For the same compound, the “Rolipram potency on PDE1/4 chimera relative to PDE4D catalytic domain (in words)” value [1] was “inhibited the PDE1/4 chimera more potently than the PDE4D catalytic domain”, the “Rolipram potency on PDE1/4 chimera relative to PDE4D catalytic domain (in words)” value ([1]; listed as Rolipram) was “inhibits the PDE1/4 chimera more potently than the PDE4D catalytic domain alone” and the “Rolipram affinity/potency boost on calcium/calmodulin-activated PDE1/4 chimera (in words)” value [1] was “affinity boost was lost when the chimera was activated by calcium/calmodulin”. The “Rolipram affinity/potency boost on calcium/calmodulin-activated PDE1/4 chimera (in words)” value ([1]; listed as Rolipram) was “increased potency is lost upon activation of the chimera by calcium/calmodulin”.
In the case of SDEVPSEVRDWLASTFTRQ [PEP1-sol], the “Solubility (in words)” value [3] is reported as “more soluble variant” and the IC50 [4] is reported as 17.9 ± 2.1 µM.
With calmodulin the “Calmodulin regulation of PDE1B_82–501 (in words)” value (PDE1B_82–501) was “no impact on calmodulin regulation of activity”.
